Here are results for 3 substances from patent publication US8058228B2, “Leptin peptide antagonists” (Boston Biomedical Research Institute, priority 2004, dated 2011).

For assay [1], the system named is OB-R. Briefly: LIF-R expression by rabbit endometrial cells (immunocytochemistry, Western blot). The class given is cell-based. The conditions noted are these: leptin 3 nM; for effect on leptin up-regulation of LIF-R expression: rESC (immunocytochemistry) and rEEC (Western blot), LPA-2 30 and 120 nM; for LIF-R expression after leptin: rESC and rEEC. The procedure: (§1) Rabbit endometrial cells (5×10^5 cells/well) were cultured for 5-9 days in DMEM-MCDB105 (3:1) medium containing 10% fetal bovine serum (FBS), 5 μg/ml insulin, 1% amphopthericin B, 100 μg/ml streptomycin and 100 U/ml penicillin until confluent layers were obtained. The cells were washed twice with 100 mM phosphate saline buffer (PBS) −2% BSA (w/v), pH 7.2 and cultured for an additional 2 days in the same medium but without FBS (basal medium). This procedure was performed to reduce any effects of cytokines from FBS on the phosphorylation rate of Stat3 as well as the expression of other cytokines and their receptors. Cells were washed as described before and cultured in basal medium containing leptin (0-10 nM), OB-R antibody (1-20 μg/ml) and/or LPA-2 peptides (0-300 nM). Cultures were stopped at 24 h and the cells were used for immunocytochemistry, binding studies and western blot analysis. The conditioned media were collected, lyophilized and stored at −80° C. for ELISA determinations. Duplicate wells were run for each treatment and the experiments repeated at least three times with different cell preparations from different rabbits. Controls were the same cellular preparations cultured in basal medium containing non-specific goat IgGs and LPA-2Sc.
(§2) The rabbit endometrial cells were cultured as described above in duplicate on 8-well glass-bottom culture plates (Nalgene Nunc International, Naperville, Ill.) and fixed with methanol at −20° C. for 20 min for immunocytochemical studies. All the antibodies tested were diluted in PBS-2% BSA (w/v; buffer A).
(§3) Anti IL-1R tl (1 μg/ml), anti LIF-R (2 μg/ml), anti vimentin (1:50), anti cytokeratin (1:50) and anti p-Stat3 (1 μg/ml) antibodies were used to assess the expression of the respective antigens by rEEC and rESC cultures. After incubation with primary antibodies the cells were incubated with a streptavidin-biotin-alkaline phosphatase system according to the manufacturer directions (Vectastain, ABC-AP kit, Vector Laboratories, Burlingame, Calif.) and counter-stained with hematoxylin (Dako). Negative controls included cell preparations in which the primary antibodies were substituted by irrelevant species matched IgGs.
(§4) After culture in the presence of leptin, LPAs or antibodies, the endometrial cells were washed with ice-cold PBS and lysed by homogenization on ice with lysis buffer [[…] Tris, pH 7.4, containing […] NaCl, 2 mM EDTA, 10% glycerol, 50 mM β-glycerophosphate, […] NaF, 1% Nonidet P-40, 2 mM phenyl-methylsulfonyl fluoride, 2 mM sodium orthovanadate, 100 μM antipain, 0.1 mg/ml trypsin inhibitor and protease cocktail inhibitor 1:50 (Sigma)]. […] Protein concentrations were determined using the Bradford protein assay (BioRad Laboratories Inc., Hercules, Calif.). […]
A general note: A western blot detects proteins with antibodies after separation by electrophoresis.

Assay [2] deals with OB-R. Briefly: IL-1R tl expression by rabbit endometrial cells (immunocytochemistry, Western blot). It is filed as cell-based. The settings on record: for effect on leptin up-regulation of IL-1R tl expression: LPA-2 30 and 120 nM, LPA-2Sc 120 nM, antibody 20 μg/ml. Here is the method:
as §1, §2, §3, §4

“Also recorded” adds a separate entry of the source.

For “SRNVIQISNDLENLRDLLHVLAFSKS [LPA-2, 26 amino acid peptide, residues 70-95 of helix III of the human leptin molecule; leptin peptide antagonist]”, in assay [1], the “effect on leptin up-regulation of LIF-R expression” value is recorded as “totally inhibited the leptin effect on LIF-R expression”. Further, in assay [2] (rESC, LPA-2 120 nM, Western blot), the “effect on basal expression of IL-1R tl” value is listed as “inhibited the basal expression of IL-1R tl”. The “effect on leptin up-regulation of IL-1R tl expression” value in assay [2] (rESC, leptin 3 nM) is given as “completely abolished; also recorded: significantly decreased”.
On to “VAEVLNRSDLIQRISFSLDLNNSKLH [LPA-2Sc, scrambled version of LPA-2, negative control, reference compound]”, for which the “effect on leptin up-regulation of LIF-R expression” value in assay [1] is given as “did not prevent the leptin up-regulation of LIF-R”. The “effect on leptin up-regulation of IL-1R tl expression” value in assay [2] (rESC, leptin 3 nM) is listed as “did not alter the leptin effect on IL-1R tl expression”.
For the substance “leptin: human recombinant leptin (R&D Systems), OB-R ligand used as stimulus”, the “LIF-R expression after leptin” value was “up-regulates the expression of LIF-R” in assay [1] and “significantly increases the expression of LIF-R” in assay [1] (listed as Leptin). In assay [2] (rabbit endometrial cells, leptin 3 nM), the “IL-1R tl expression after leptin” value is recorded as “substantially up-regulates IL-1R tl expression”.
